Earlier results as cited in US8354438B2, “Neurological functions” (priority 2001, dated 2013).

Test system: carnosinase
Conditions: compared with the parent compound carnosine; Boldyrev 2000; cited from earlier work

Structure (SMILES)	rate of hydrolysis
CC(=O)NCCC(=O)N[C@@H](Cc1cnc[nH]1)C(=O)O [N-acetylcarnosine]	negligible
Cn1cncc1C[C@H](NC(=O)CCN)C(=O)O [ophidine, β-Alanlyl-3-methyl-L-histidine]	much more slowly
NCCC(=O)NCCc1c[nH]cn1 [carcinine]	negligible
